Values of other authors as cited in US20100330150A1, “Orally Disintegrating Tablet Compositions Comprising Combinations of High and Low-Dose Drugs” (priority 2009, published 2010).

Columns and labels:
serum protein = conditions: after normal therapeutic dosages

CC(=O)Nc1ccc(O)cc1 [acetaminophen]
Plasma half-life (normal, healthy patients): 1 to 2.5 h
Time after which only traces of the drug are detectable (oral administration): about 8 hours
Time at which peak plasma concentrations are attained (oral administration): 30 to 60 min
Binding to serum protein (serum protein): about 25%
